According to PubChem BioAssay (NCI):
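Values below derive from 48-hour exposures of cells grown in 96-well plates, with endpoints linearly interpolated between the two concentrations bracketing the appropriate inhibition level. TGI denotes the concentration required for complete inhibition of growth.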

Tests used:
Assay in all cases: NCI tumour cell line growth inhibition, 48 h
786-0 renal = system: 786-0 renal
A498 renal = system: A498 renal
A549 NSCLC = system: A549 NSCLC
ACHN renal = system: ACHN renal
BT-549 breast = system: BT-549 breast
CAKI-1 renal = system: CAKI-1 renal
CCRF-CEM leukemia = system: CCRF-CEM leukemia
COLO 205 colon = system: COLO 205 colon
DU-145 prostate = system: DU-145 prostate
EKVX NSCLC = system: EKVX NSCLC
HCC-2998 colon = system: HCC-2998 colon
HCT-116 colon = system: HCT-116 colon
HCT-15 colon = system: HCT-15 colon
HL-60(TB) leukemia = system: HL-60(TB) leukemia
HOP-62 NSCLC = system: HOP-62 NSCLC
HOP-92 NSCLC = system: HOP-92 NSCLC
HS 578T breast = system: HS 578T breast
HT29 colon = system: HT29 colon
IGROV1 ovarian = system: IGROV1 ovarian
K-562 leukemia = system: K-562 leukemia
KM12 colon = system: KM12 colon
LOX IMVI melanoma = system: LOX IMVI melanoma
M14 melanoma = system: M14 melanoma
MALME-3M melanoma = system: MALME-3M melanoma
MCF7 breast = system: MCF7 breast
MDA-MB-231 breast = system: MDA-MB-231 breast
MDA-MB-435 = system: MDA-MB-435
MDA-N = system: MDA-N
MOLT-4 leukemia = system: MOLT-4 leukemia
NCI-H226 lung = system: NCI-H226 lung
NCI-H23 lung = system: NCI-H23 lung
NCI-H460 lung = system: NCI-H460 lung
NCI/ADR-RES ovarian = system: NCI/ADR-RES ovarian
OVCAR-3 ovarian = system: OVCAR-3 ovarian
OVCAR-4 ovarian = system: OVCAR-4 ovarian
OVCAR-5 ovarian = system: OVCAR-5 ovarian
OVCAR-8 ovarian = system: OVCAR-8 ovarian
PC-3 prostate = system: PC-3 prostate
RPMI-8226 leukemia = system: RPMI-8226 leukemia
RXF 393 renal = system: RXF 393 renal
SF-268 CNS = system: SF-268 CNS
SF-295 CNS = system: SF-295 CNS
SF-539 CNS = system: SF-539 CNS
SK-MEL-2 melanoma = system: SK-MEL-2 melanoma
SK-MEL-28 melanoma = system: SK-MEL-28 melanoma
SK-MEL-5 melanoma = system: SK-MEL-5 melanoma
SK-OV-3 ovarian = system: SK-OV-3 ovarian
SN12C renal = system: SN12C renal
SNB-19 CNS = system: SNB-19 CNS
SNB-75 CNS = system: SNB-75 CNS
SR leukemia = system: SR leukemia
SW-620 colon = system: SW-620 colon
T-47D breast = system: T-47D breast
TK-10 renal = system: TK-10 renal
U251 CNS = system: U251 CNS
UACC-257 melanoma = system: UACC-257 melanoma
UACC-62 melanoma = system: UACC-62 melanoma
UO-31 renal = system: UO-31 renal
NCI-H522 lung = system: NCI-H522 lung

## O=C(O)c1ccc(Nc2cnc3ccc(C(F)(F)F)cc3n2)cc1
786-0 renal
  TGI: > 100 µM
A498 renal
  TGI: 42.9 µM
A549 NSCLC
  TGI: 30.8 µM
ACHN renal
  TGI: 32.6 µM
BT-549 breast
  TGI: 60.1 µM
CAKI-1 renal
  TGI: 30.9 µM
CCRF-CEM leukemia
  TGI: 43.1 µM
COLO 205 colon
  TGI: 32.5 µM
DU-145 prostate
  TGI: 69.5 µM
EKVX NSCLC
  TGI: > 100 µM
HCC-2998 colon
  TGI: 19.6 µM
HCT-116 colon
  TGI: 37.6 µM
HCT-15 colon
  TGI: 36.8 µM
HL-60(TB) leukemia
  TGI: 20.7 µM
HOP-62 NSCLC
  TGI: 38.9 µM
HOP-92 NSCLC
  TGI: 38.9 µM
HS 578T breast
  TGI: 40 µM
HT29 colon
  TGI: 33.6 µM
IGROV1 ovarian
  TGI: 28.5 µM
K-562 leukemia
  TGI: 51.4 µM
KM12 colon
  TGI: 31.4 µM
LOX IMVI melanoma
  TGI: 24.5 µM
M14 melanoma
  TGI: > 100 µM
MALME-3M melanoma
  TGI: > 100 µM
MCF7 breast
  TGI: > 100 µM
MDA-MB-231 breast
  TGI: 36.9 µM
MDA-MB-435
  TGI: 72.3 µM
MDA-N
  TGI: 37.3 µM
MOLT-4 leukemia
  TGI: 44.5 µM
NCI-H226 lung
  TGI: 29.4 µM
NCI-H23 lung
  TGI: 33.5 µM
NCI-H460 lung
  TGI: 87.9 µM
NCI/ADR-RES ovarian
  TGI: > 100 µM
OVCAR-3 ovarian
  TGI: 98.1 µM
OVCAR-4 ovarian
  TGI: 40.7 µM
OVCAR-5 ovarian
  TGI: > 100 µM
OVCAR-8 ovarian
  TGI: 41.2 µM
PC-3 prostate
  TGI: 42.6 µM
RPMI-8226 leukemia
  TGI: 48 µM
RXF 393 renal
  TGI: 35.3 µM
SF-268 CNS
  TGI: > 100 µM
SF-295 CNS
  TGI: 45.3 µM
SF-539 CNS
  TGI: 58.2 µM
SK-MEL-2 melanoma
  TGI: 30.7 µM
SK-MEL-28 melanoma
  TGI: > 100 µM
SK-MEL-5 melanoma
  TGI: 32 µM
SK-OV-3 ovarian
  TGI: > 100 µM
SN12C renal
  TGI: 90.2 µM
SNB-19 CNS
  TGI: 33.7 µM
SNB-75 CNS
  TGI: 37.2 µM
SR leukemia
  TGI: 43.8 µM
SW-620 colon
  TGI: 46.6 µM
T-47D breast
  TGI: 17.9 µM
TK-10 renal
  TGI: 44.8 µM
U251 CNS
  TGI: 59.2 µM
UACC-257 melanoma
  TGI: 93.9 µM
UACC-62 melanoma
  TGI: 29.2 µM
UO-31 renal
  TGI: 27.5 µM

## COc1cc(C2S/C(=C/c3ccccc3)C(=O)N2c2ccc(Cl)cc2)cc(OC)c1OC (stereo not given)
786-0 renal
  TGI: > 100 µM
A498 renal
  TGI: > 100 µM
A549 NSCLC
  TGI: > 100 µM
ACHN renal
  TGI: > 100 µM
BT-549 breast
  TGI: > 100 µM
CAKI-1 renal
  TGI: > 100 µM
CCRF-CEM leukemia
  TGI: > 100 µM
COLO 205 colon
  TGI: 5.68 µM
DU-145 prostate
  TGI: > 100 µM
EKVX NSCLC
  TGI: > 100 µM
HCC-2998 colon
  TGI: > 100 µM
HCT-116 colon
  TGI: > 100 µM
HCT-15 colon
  TGI: > 100 µM
HL-60(TB) leukemia
  TGI: 85 µM
HOP-62 NSCLC
  TGI: > 100 µM
HOP-92 NSCLC
  TGI: > 52 µM
HS 578T breast
  TGI: > 100 µM
HT29 colon
  TGI: > 75.9 µM
IGROV1 ovarian
  TGI: > 100 µM
K-562 leukemia
  TGI: > 100 µM
KM12 colon
  TGI: > 100 µM
LOX IMVI melanoma
  TGI: 52.4 µM
M14 melanoma
  TGI: > 46 µM
MALME-3M melanoma
  TGI: 87.2 µM
MCF7 breast
  TGI: > 100 µM
MDA-MB-231 breast
  TGI: > 96.6 µM
MDA-MB-435
  TGI: 24.8 µM
MDA-N
  TGI: 34.3 µM
MOLT-4 leukemia
  TGI: > 81.5 µM
NCI-H226 lung
  TGI: > 100 µM
NCI-H23 lung
  TGI: > 100 µM
NCI-H522 lung
  TGI: 21.2 µM
NCI/ADR-RES ovarian
  TGI: > 100 µM
OVCAR-3 ovarian
  TGI: > 100 µM
OVCAR-4 ovarian
  TGI: > 100 µM
OVCAR-5 ovarian
  TGI: > 100 µM
OVCAR-8 ovarian
  TGI: > 100 µM
PC-3 prostate
  TGI: > 84.4 µM
RPMI-8226 leukemia
  TGI: > 100 µM
RXF 393 renal
  TGI: > 100 µM
SF-268 CNS
  TGI: > 100 µM
SF-295 CNS
  TGI: > 100 µM
SK-MEL-2 melanoma
  TGI: > 30.2 µM
SK-MEL-28 melanoma
  TGI: > 100 µM
SK-MEL-5 melanoma
  TGI: > 100 µM
SK-OV-3 ovarian
  TGI: > 100 µM
SN12C renal
  TGI: > 100 µM
SNB-19 CNS
  TGI: > 100 µM
SNB-75 CNS
  TGI: > 79.9 µM
SR leukemia
  TGI: > 100 µM
SW-620 colon
  TGI: > 100 µM
T-47D breast
  TGI: > 25.6 µM
TK-10 renal
  TGI: > 100 µM
U251 CNS
  TGI: > 94.1 µM
UACC-257 melanoma
  TGI: > 100 µM
UACC-62 melanoma
  TGI: > 100 µM
UO-31 renal
  TGI: > 100 µM
